Laboratory results as given in patent US11802110B2, “2-amino-N-(arylsulfinyl)-acetamide compounds as inhibitors of bacterial aminoacyl-tRNA synthetase” (priority 2016, dated 2023).
In brackets after ≈: the same amount, converted by molar mass. Like-named read-outs stand apart in the source and are kept apart here.

Legend:
E. Coli LeuRS = E. Coli LeuRS (Escherichia coli (strain K12), UniProt P07813); experiment: Study 2 - Isothermal titration calorimetry (ITC); format: binding; conditions: 25° C., pH 7.5, mean ± SD
Description: Escherichia coli BL21(DE3) cells transformed with plasmid pQE-60 containing the open-reading frame sequence of one targeted aaRS (i.e., LeuRS) were induced with 1 mM IPTG (isopropyl β-D-1-thiogalactopyranoside) for 3 hours at 37° C. Bacterial cells were harvested and lysed with 20 mM HEPES (4-(2-hydroxyethyl)-1-piperazinylethane-sulfonic acid) (pH 7.5), 300 mM NaCl, 15 mM imidazole and 1 mM DTT (1,4-dithio-D-threitol). The pathogenic aaRS was first purified by nickel affinity standard chromatography. The eluted protein was concentrated and then further purified by gel filtration using 50 mM HEPES (pH 7.5), 150 mM NaCl buffer.
ITC studies were carried out using a Microcal ITC200 instrument (GE Healthcare). Protein concentration was determined by spectrophotometry by measuring the absorbance at 280 nm using a theoretical molar extinction coefficient of 169,140 M^−1cm^−1. Ligand stock solutions were prepared in DMSO at 62.5 mM concentration. The titrations were performed at 25° C. with 7.5-100 μM E. Coli LeuRS in 50 mM HEPES, 150 mM NaCl, pH 7.5 buffer containing 1% DMSO (v/v). The protein solution in the 280 μL sample cell was titrated with the inhibitor solution (diluted to 75-3000 μM in the same buffer as the protein) using 1-2 μL injections every 120-140 seconds. All titrations were repeated at least two times. To correct for heats of dilution and mixing, the final baseline consisting of small peaks of identical size at the end of each experiment was subtracted. The experimental data were fitted to a theoretical titration curve (one site model) using MicroCal Origin 7 SR4 software.
Note that Compounds R-4.1 and S-4.1 (in Table 15, below) correspond to Compounds V-i and V-ii (in Tables 13 and 14, above), respectively.

[1] = Human cell viability (cytotoxicity), ATP levels by CellTiter-Glo; format: cell-based; conditions: HepG2 cells (ATCC HB-8065), 24 hours incubation, read-out: IC50 (μg/mL), Cytotoxicity in HepG2 ATCC HB-8065 Cell Line
Description: Compounds were assessed for potential non-specific cytotoxic effects against a human hepatic cell line (HepG2 ATCC HB-8065). 96-well plates were seeded with HepG2 cells in concentration of 15,000 cells per well in 100 μL of MEM growth media completed with 1% NEAA and 1% sodium pyruvate. Border wells were filled with 100 μL of sterile PBS. Two days upon cells incubation, the compounds were added. Compound dilutions were prepared in 96-well V-bottom plate in pure DMSO. Growth media from 5 plates were aspirated and replaced with 98.7 μL of fresh growth media. 1.28 μL of compounds prepared in V-bottom plates were transferred with multichannel pipette into test plates (78.1× dilution). Final DMSO concentration was 1.28% per well. In control wells, 1.28 μL of DMSO was added in 98.7 μL of media. Compounds were tested in duplicates. Cells were incubated with compounds for 24 hours when cell viability was assessed by measuring ATP levels. ATP levels were measured by adding 50 μL of CellTiter-Glo reagent to each well and after 5 minutes of incubation luminescence was measured with SpectraMax i3. The potential effect of tested compounds on cell viability was determined by comparing the signal obtained in presence of different concentrations of the compounds with those obtained in the presence of DMSO only. The potential effects were then calculated and presented as IC50 values (μg/mL).

[2] = tested on: Enterobacter cloacae B1966 clinical isolate; experiment: Study 4 - MIC by broth micro-dilution (CLSI); format: cell-based
Description: (§1) Minimum Inhibitory Concentrations (MICs) were determined by the broth micro-dilution method performed according to Clinical Laboratory Standards Institute guidelines. For testing, 5 mg/mL DMSO solutions were prepared by dissolving solids in DMSO. Standard antibiotics were prepared according to CLSI guidelines as 5 mg/mL stock solutions. Upon DMSO stock solutions preparation, the working solutions in MH media were prepared by adding 38.4 μL of stock solution to 1461.6 μL of MH media. Out of these working solutions 100 μL were transferred to wells in the third column of 96-well assay plates. Assay plates were previously filled with 50 μL of MH media in all wells except for the wells in the third column. Upon compounds and antibiotics addition, 50 μL was transferred from the third to the fourth column, then from the fourth to the fifth and so on.
(§2) MIC value was determined by visual inspection of bacterial growth within 96-well plates. The first column in which there was no visible growth of bacteria was determined as MIC value for compound or antibiotic tested in that particular row. ATCC strains were used as reference strains for which there is a determined value of MIC values for standard antibiotics. The assay is considered valid when MIC values for standard antibiotics are within CLSI designated range for ATCC strain tested.

[3] = tested on: Acinetobacter baumannii B1931 clinical isolate; experiment: Study 4 - MIC by broth micro-dilution (CLSI); format: cell-based
Description: as §1, §2

[4] = tested on: Haemophilus influenzae ATCC 49247; experiment: Study 4 - MIC by broth micro-dilution (CLSI); format: cell-based; conditions: G = H. influenzae ATCC 49247
Description: as §1, §2

[5] = tested on: Escherichia coli ATCC 25922; experiment: Study 4 - MIC by broth micro-dilution (CLSI); format: cell-based
Description: as §1, §2

[6] = tested on: Pseudomonas aeruginosa ATCC 27853; experiment: Study 4 - MIC by broth micro-dilution (CLSI); format: cell-based
Description: as §1, §2

[7] = tested on: Klebsiella pneumoniae ATCC 700603; experiment: Study 4 - MIC by broth micro-dilution (CLSI); format: cell-based
Description: as §1, §2

[8] = tested on: Escherichia coli ATCC 25922 TolC deficient mutant (E. coli EFFLUX del); experiment: microbe, parasite or virus in culture; format: cell-based
Description: as §1, §2

[9] = Haemophilus influenzae, ATCC49247, read-out: MIC
[10] = Pseudomonas aeruginosa, ATCC27853
[11] = Klebsiella pneumoniae, ATCC700603

Sequence of E. Coli LeuRS (P07813 whole entry): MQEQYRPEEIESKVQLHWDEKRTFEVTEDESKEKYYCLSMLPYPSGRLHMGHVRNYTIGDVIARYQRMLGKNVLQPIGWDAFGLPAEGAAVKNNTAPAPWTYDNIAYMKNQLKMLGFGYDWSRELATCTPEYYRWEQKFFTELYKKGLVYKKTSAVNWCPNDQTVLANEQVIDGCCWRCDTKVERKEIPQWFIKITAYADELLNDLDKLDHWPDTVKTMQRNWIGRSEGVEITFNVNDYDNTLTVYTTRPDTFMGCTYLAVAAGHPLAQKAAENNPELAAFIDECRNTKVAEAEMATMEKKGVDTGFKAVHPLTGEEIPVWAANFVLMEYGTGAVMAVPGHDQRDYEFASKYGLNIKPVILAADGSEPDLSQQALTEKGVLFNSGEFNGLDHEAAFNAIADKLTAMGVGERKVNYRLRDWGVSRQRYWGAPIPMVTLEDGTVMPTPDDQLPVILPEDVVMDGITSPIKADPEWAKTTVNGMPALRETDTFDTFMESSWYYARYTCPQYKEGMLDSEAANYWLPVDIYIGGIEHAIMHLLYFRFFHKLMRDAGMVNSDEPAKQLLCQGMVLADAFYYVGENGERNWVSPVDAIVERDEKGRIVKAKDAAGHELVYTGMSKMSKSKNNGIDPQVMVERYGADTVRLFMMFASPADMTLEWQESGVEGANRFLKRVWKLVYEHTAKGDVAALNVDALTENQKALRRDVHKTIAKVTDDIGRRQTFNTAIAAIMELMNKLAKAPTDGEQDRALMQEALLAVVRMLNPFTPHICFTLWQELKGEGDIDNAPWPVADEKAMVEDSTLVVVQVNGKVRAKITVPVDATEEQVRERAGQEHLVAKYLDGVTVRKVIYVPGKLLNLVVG

Compound | IC50 at 24 h [1] [µg/mL] | MIC ([2]; Enterobacter cloacae) [µg/mL] | MIC ([3]; Acinetobacter baumannii) [µg/mL] | MIC [4, 9] [µg/mL] | MIC ([5]; Escherichia coli, ATCC25922) [µg/mL] | MIC [6, 10] [µg/mL] | MIC [7, 11] [µg/mL] | other results
CC(C)CC(N)C(=O)N[S+]([O-])c1cccc(Br)c1 (stereo not shown) [4.15] | > 64 | 32 (≈ 96 µM) | 64 (≈ 192 µM) | 8 (≈ 24 µM) | 8 (≈ 24 µM) | 64 (≈ 192 µM) | 16 (≈ 48 µM) | Kd (E. Coli LeuRS): 10.6 ± 0.39 nM; ΔG (E. Coli LeuRS): -10.88 ± 0.03 kcal/mol; ΔH (E. Coli LeuRS): -10.74 ± 0.16 kcal/mol
CC(C)CC(N)C(=O)N[S+]([O-])c1cccc(C#N)c1 (stereo not shown) [4.19] | > 64 | 8 (≈ 28.6 µM) | 64 (≈ 229 µM) | 8 (≈ 28.6 µM) | 2 (≈ 7.16 µM) | > 64 | 4 (≈ 14.3 µM) | Kd (E. Coli LeuRS): 3.35 ± 0.48 nM; ΔG (E. Coli LeuRS): -11.56 ± 0.09 kcal/mol; ΔH (E. Coli LeuRS): -8.49 ± 0.38 kcal/mol
COCc1cccc([S+]([O-])NC(=O)C(N)CC(C)C)c1 (stereo not shown) [4.23] | – | – | – | – | – | – | – | Kd (E. Coli LeuRS): 17.5 ± 1.1 nM; ΔG (E. Coli LeuRS): -10.58 ± 0.03 kcal/mol; ΔH (E. Coli LeuRS): -7.06 ± 0.75 kcal/mol
CC(C)CC(N)C(=O)N[S+]([O-])c1cccc(-c2ccn(C)n2)c1 (stereo not shown) [4.26] | > 64 | > 64 | > 64 | > 64 | 64 (≈ 191 µM) | > 64 | > 64 | MIC ([8]; Escherichia coli, ATCC25922): 64 µg/mL (≈ 191 µM)
CC(C)CC(N)C(=O)N[S+]([O-])c1ccc(C(C)(C)C)cc1 (stereo not shown) [4.28] | > 64 | – | – | – | – | – | – | –
CC(C)CC(N)C(=O)N[S+]([O-])c1ccccc1C#N (stereo not shown) [4.30] | 32.5 (≈ 116 µM) | 32 (≈ 115 µM) | 8 (≈ 28.6 µM) | 8 (≈ 28.6 µM) | 16 (≈ 57.3 µM) | 32 (≈ 115 µM) | 32 (≈ 115 µM) | MIC ([8]; Escherichia coli, ATCC25922): 16 µg/mL (≈ 57.3 µM)
CC(C)CC(N)C(=O)N[S+]([O-])c1cc(Cl)cc(Cl)c1 (stereo not shown) [4.36] | 44 (≈ 136 µM) | > 64 | > 64 | > 64 | 64 (≈ 198 µM) | > 64 | > 64 | MIC ([8]; Escherichia coli, ATCC25922): 64 µg/mL (≈ 198 µM)
Cc1ccc([S+]([O-])NC(=O)C(N)CC(C)C)c(F)c1 (stereo not shown) [4.38] | > 64 | – | – | – | – | – | – | –
CC(C)CC(N)C(=O)N[S+]([O-])c1cccc2ccccc12 (stereo not shown) [4.39] | 46 (≈ 151 µM) | 64 (≈ 210 µM) | 64 (≈ 210 µM) | 8 (≈ 26.3 µM) | 16 (≈ 52.6 µM) | > 64 | 64 (≈ 210 µM) | Kd (E. Coli LeuRS): 12.8 ± 1.6 nM; ΔG (E. Coli LeuRS): -10.77 ± 0.08 kcal/mol; ΔH (E. Coli LeuRS): -9.29 ± 0.62 kcal/mol
CC(C)CC(N)C(=O)N[S+]([O-])c1ccc2ccccc2c1 (stereo not shown) [4.40] | > 64 | – | – | – | – | – | – | –
CC(C)CC(N)C(=O)N[S+]([O-])c1cccs1 (stereo not shown) [4.41] | > 64 | – | – | – | – | – | – | –
CC[C@H]1OC(=O)[C@H](C)[C@@H](O[C@H]2C[C@@](C)(OC)[C@@H](O)[C@H](C)O2)[C@H](C)[C@@H](O[C@@H]2O[C@H](C)C[C@H](N(C)C)[C@H]2O)[C@](C)(O)C[C@@H](C)CN(C)[C@H](C)[C@@H](O)[C@]1(C)O [Azithromycin] | – | – | – | 2 (≈ 2.67 µM) | – | – | – | MIC ([8]; Escherichia coli, ATCC25922): 0.5 µg/mL (≈ 0.668 µM); MIC ([2]; C = Enterobacter cloacae B1966, read-out: MIC): 16 µg/mL (≈ 21.4 µM); MIC ([3]; Acinetobacter baumannii, F = A. baumannii B1931, read-out: MIC): 16 µg/mL (≈ 21.4 µM); MIC ([5]; Escherichia coli, ATCC25922, A = E. coli ATCC 25922, read-out: MIC): 4 µg/mL (≈ 5.34 µM); MIC ([6]; Pseudomonas aeruginosa, ATCC27853, E = P. aeruginosa ATCC 27853, read-out: MIC): 32 µg/mL (≈ 42.7 µM); MIC ([7]; Klebsiella pneumoniae, ATCC700603, D = KI. pneumoniae ATCC 700603, read-out: MIC): 32 µg/mL (≈ 42.7 µM)
CC(C)(O/N=C(\C(=O)N[C@@H]1C(=O)N2C(C(=O)[O-])=C(C[n+]3ccccc3)CS[C@H]12)c1csc(N)n1)C(=O)O [Ceftazidime] | – | – | – | – | – | – | – | MIC ([8]; B = E. coli EFFLUX del): 0.25 µg/mL (≈ 0.457 µM); MIC ([2]; C = Enterobacter cloacae B1966): 0.5 µg/mL (≈ 0.915 µM); MIC ([3]; F = A. baumannii B1931): 2 µg/mL (≈ 3.66 µM); MIC [4]: 16 µg/mL (≈ 29.3 µM); MIC ([5]; A = E. coli ATCC 25922): 0.25 µg/mL (≈ 0.457 µM); MIC ([6]; E = P. aeruginosa ATCC 27853): >64 µg/mL; MIC ([7]; D = KI. pneumoniae ATCC 700603): >64 µg/mL
C[C@@H](O)[C@H]1C(=O)N2C(C(=O)O)=C(S[C@@H]3CN[C@H](C(=O)N(C)C)C3)[C@H](C)[C@H]12 [Meropenem] | – | – | – | – | – | – | – | MIC ([8]; B = E. coli EFFLUX del): 0.5 µg/mL (≈ 1.3 µM); MIC ([2]; C = Enterobacter cloacae B1966): 0.5 µg/mL (≈ 1.3 µM); MIC ([3]; F = A. baumannii B1931): 8 µg/mL (≈ 20.9 µM); MIC [4]: 4 µg/mL (≈ 10.4 µM); MIC ([5]; A = E. coli ATCC 25922): 0.5 µg/mL (≈ 1.3 µM); MIC ([6]; E = P. aeruginosa ATCC 27853): >64 µg/mL; MIC ([7]; D = KI. pneumoniae ATCC 700603): 0.5 µg/mL (≈ 1.3 µM)
